According to patent US5451506A, “Oncostatin M and novel compositions having anti-neoplastic activity” (Oncogen Limited Partnership, priority 1993, dated 1995):
Several values for one entry are separate records, joined by “and”; a condition that tells them apart may be missing. Identical values can stand only once.

What was measured:
MCF-7 breast tumor cells = assay: Inhibition of 3H-TdR incorporation, Oncostatin M and TNF-α; assay type: cell-based, human; conditions: MCF-7 Cells
Description: The assays were performed in 96 flat well plates (Costar 3596). Human melanoma cells (A375) (3×10^3 /100 μl) or cells from another cell line of interest were at an appropriate cell density used. Cells in 100 μl growth medium were placed in each well. Three hours later, 100 μl of test sample in growth medium was added to each well. Plates were incubated at 37° C. for 3 days. Then 25 μl (0.5 μCi) of a solution of ^3 H-thymidine (specific activity 27 μCi/μg) was added to each well for the final 6 hours of incubation. The cells were then transferred to glass filter strips using a multiwell harvester (PHD Cell Harvester, Cambridge Technology, Inc.). The filters were transferred to scintillation vials. Two ml of scintillation fluid (ScientiVerse II, Fisher Scientific Co.) was added and the samples counted in a scintillation counter to quantitate ^3 H-thymidine incorporation.
Inhibition of ^3 H-TdR incorporation into A375 cells and MCF-7 cells were compared using the assay described in Example 1B, above. The cells were treated with either Oncostatin M alone, TNF-α (Amgen Biologicals, human recombinant TNF-α) alone, or with a combination of Oncostatin M and TNF-α.

A375 tumor cells = assay: Inhibition of growth of A375 tumors in nude mice; assay type: in vivo; conditions: for Cumulative Tumor Size: 3 mice
Description: A375 tumor cells (2.3×10^6) or an appropriate number of cells of another cell line of interest were injected subcutaneously in the interscapular region of nude mice. When the tumors became palpable, half of the mice were inoculated subcutaneously proximal to the tumor with either (a) 100 μl PBS containing 1.6 μg bovine serum albumin (BSA) or (b) 100 μl PBS containing 1.6 μg BSA plus the test sample. The mice were inoculated in the same manner every 2-3 days until about 19 days after the first inoculation. The diameter and width of each tumor was measured every 2-3 days using calipers.
Six nude mice were injected with A375 cells as described in Example 1D, above. After the tumors became palpable, the mice were injected, proximal to the tumor, with PBS (control) or PBS containing 400 ng Oncostatin M, three mice in each group.
The cumulative sizes (mm^2) of the tumors in each group of three mice were determined every 2-3 days.

A375 cells = assay: Growth inhibition assay (A375 proliferation; synergy tests); assay type: cell-based, human; conditions: 1.8 U/ml, alone
Description: A375 melanoma cells (4×10^3 cells/50 μl), Mv1Lu mink lung epithelial cells (3.5×10^3 cells/50 μl), or other cell line of interest at an appropriate cell density were subcultured for four hours on flat-bottomed 96-well tissue culture plates (Costar 3596, Cambridge, Mass.) in growth medium comprising Dulbecco's modified Eagle's medium (DMEM), supplemented with 10% heat-in-activated fetal bovine serum, and P/S. Test samples to be assayed for growth inhibition were diluted in growth medium and assayed in triplicate with 50 μl of the diluted sample added to each well. The cells were incubated for 72 hours at 37° C.
The growth inhibitory activity of highly purified TGF-β1, recombinant gamma-interferon (rIFN-γ), and Oncostatin M on A375 cells was determined, and possible synergy between TGF-β1 and Oncostatin M, TGF-β1 and rIFN-γ, and Oncostatin M and rIFN-γ in inhibiting A375 proliferation was tested. […] is expressed in units of Mv1Lu growth inhibitory activity, rIFN-γ in units of anti-viral activity and Oncostatin M in units of A375 growth inhibitory activity. Concentrations of TGF-β1 (1-30 U/ml) and Oncostatin M (0.5-10 U/ml) were chosen which caused either no or only minimal growth inhibition when tested individually.

[1] = system: γ-interferon-sensitive human tumor cell line; assay: Cytotoxic activity against a γ-interferon-sensitive tumor line; assay type: cell-based

With “Oncostatin M: Human polypeptide growth regulator produced by activated leukocytes; apparent molecular weight approximately 28 kD by PAGE” the “Observed % Inhibition of 3H-TdR Incorporation” value (MCF-7 breast tumor cells) was 18%, the “Tumor size relative to control animals” value (A375 tumor cells; 400 ng Oncostatin M vs PBS) was “about half the size of those in control animals” and the “Tumor weight relative to control-treated mice” value (A375 tumor cells; 400 ng Oncostatin M vs PBS, after 21 days) was “approximately one-third the weight of the tumors from the control-treated mice”. The “Cumulative Tumor Size” value (A375 tumor cells; day 0 after treatment, 400 ng, PBS 70) was 50 mm^3, the “Cumulative Tumor Size” value (A375 tumor cells; day 3 after treatment, 400 ng, PBS 116) was 64 mm^3 and the “Cumulative Tumor Size” value (A375 tumor cells; day 5 after treatment, 400 ng, PBS 130) was 66 mm^3. For the same substance, the “Cumulative Tumor Size” value (A375 tumor cells; day 7 after treatment, 400 ng, PBS 160) was 90 mm^3, the “Cumulative Tumor Size” value (A375 tumor cells; day 10 after treatment, 400 ng, PBS 180) was 88 mm^3 and the “Cumulative Tumor Size” value (A375 tumor cells; day 12 after treatment, 400 ng, PBS 210) was 100 mm^3. The “Cumulative Tumor Size” value (A375 tumor cells; day 14 after treatment, 400 ng, PBS 268) was 116 mm^3, the “Cumulative Tumor Size” value (A375 tumor cells; day -1 after treatment, 400 ng s.c. proximal to tumor every 2-3 days, PBS 30) was 30 mm^3 and the “Tumor Wt” value (A375 tumor cells; individual mice (No. 94, 97, 95) after 21 days, PBS mice 540, 440, 480) was 100 mg and 140 mg and 200 mg. For the same substance, the “Inhibition of cell growth” value (A375 cells) was 12% and the Cytotoxic activity [1] was “lacks cytotoxic activity”.
